Results as given in patent EP0340198B1, “Immunoassay for the detection of alpha-haloacetamides” (priority 1988, dated 1989).

System: affinity column
Experiment: affinity column extraction of alachlor from rat urine containing alachlor metabolites
Type: binding, rabbit
Conditions: 0.5 µg/2 mL Urine
Description: Affinity Chromatography. The preparation of affinity columns using rabbit antisera was as follows: The rabbit IgG's were purified by passing 5 mL of the antiserum through a column containing 5 mL of the swelled protein A-agarose gel. By monitoring the absorbance at 280 nm in the column effluent, the non-bound proteins were removed by washing with PBS, and the IgG's were then eluted with acetic acid at pH 2.3 (0.58% acetic acid and 0.15 M NaCl). The fractions containing the IgG's were combined and neutralized; based on the UV absorbance at 280 nm (absorbance/1.4 = mg/mL protein), approximately 33 mg of IgG were isolated from 5 mL of serum, which was then lyophilized and stored at -20°C. The reusable protein A-agarose column was stored in PBS containing 0.02% sodium azide at 4°C.
The protein A-purified IgG was immobilized onto Affigel-10 affinity support. Affigel-10 (5 mL) was washed 3 times with isopropyl alcohol and 3 times with cold distilled water in a Buchner funnel. The gel was then added to a solution of IgG (3 mL in 0.1 M HEPES buffer, pH 7.5) at 4°C. Following 4 hrs of stirring, the gel was precipitated by gentle centrifugation and washed with HEPES buffer (3 x 3 mL). The remaining active sites on the gel were blocked by resuspending the gel in water (2 mL) and adding ethanolamine HCl (0.5 mL, 1M), and stirring the mixture at 22°C for 1 hr. […]

CCc1cccc(CC)c1N(COC)C(=O)CCl [Alachlor, α-chloro-2′,6′-diethyl-N-methoxymethyl acetanilide]
% 14C Eluent (75% CH3OH): 83.3%
% 14C Wash (H2O): 14.7%
